# Like-named read-outs stand apart in the source and are kept apart here.
# What was measured:
# Assay in all cases: HotSpot kinase profiling
# Assay type in all cases: biochemical
# TYRO3/SKY = target: T1, TYRO3/SKY (Homo sapiens, UniProt Q06418)
# T1 construct: purchased Reaction Biology Corp
# T1 sequence (Q06418 41-890): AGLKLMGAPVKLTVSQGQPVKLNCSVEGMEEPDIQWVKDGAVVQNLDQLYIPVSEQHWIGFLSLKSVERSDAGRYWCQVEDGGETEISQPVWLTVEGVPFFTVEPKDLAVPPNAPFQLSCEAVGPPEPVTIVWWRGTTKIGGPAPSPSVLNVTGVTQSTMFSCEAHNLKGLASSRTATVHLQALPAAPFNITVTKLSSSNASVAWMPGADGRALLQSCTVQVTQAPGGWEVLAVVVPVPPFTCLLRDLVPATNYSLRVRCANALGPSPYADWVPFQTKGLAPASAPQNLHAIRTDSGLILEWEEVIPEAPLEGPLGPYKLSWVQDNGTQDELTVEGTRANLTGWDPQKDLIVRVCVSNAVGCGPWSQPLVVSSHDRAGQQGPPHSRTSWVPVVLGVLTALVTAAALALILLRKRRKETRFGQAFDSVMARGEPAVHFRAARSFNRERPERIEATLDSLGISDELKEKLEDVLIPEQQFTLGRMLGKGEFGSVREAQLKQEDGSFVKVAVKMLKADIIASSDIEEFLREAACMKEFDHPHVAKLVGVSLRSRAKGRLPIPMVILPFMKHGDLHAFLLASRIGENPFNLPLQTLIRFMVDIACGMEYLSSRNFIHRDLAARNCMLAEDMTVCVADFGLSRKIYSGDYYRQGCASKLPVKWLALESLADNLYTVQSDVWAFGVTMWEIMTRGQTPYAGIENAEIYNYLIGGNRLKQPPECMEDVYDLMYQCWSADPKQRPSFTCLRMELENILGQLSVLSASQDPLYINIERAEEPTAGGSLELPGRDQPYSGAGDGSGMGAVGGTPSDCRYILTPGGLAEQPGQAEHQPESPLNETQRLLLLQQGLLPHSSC
# In short: (§1)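 P81 filtration radiometric readout; 2 h incubation at room temperature; 0.1% phosphoric acid wash; DMSO negative control; % inhibition, mean of replicate runs.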
# WNK2 = target: T2, WNK2 (Homo sapiens, UniProt Q9Y3S1)
# T2 construct: purchased Reaction Biology Corp
# In short: as §1
# DYRK4 = target: T3, DYRK4 (Homo sapiens, UniProt Q9NR20)
# T3 construct: purchased Reaction Biology Corp
# T3 sequence (Q9NR20 1-520): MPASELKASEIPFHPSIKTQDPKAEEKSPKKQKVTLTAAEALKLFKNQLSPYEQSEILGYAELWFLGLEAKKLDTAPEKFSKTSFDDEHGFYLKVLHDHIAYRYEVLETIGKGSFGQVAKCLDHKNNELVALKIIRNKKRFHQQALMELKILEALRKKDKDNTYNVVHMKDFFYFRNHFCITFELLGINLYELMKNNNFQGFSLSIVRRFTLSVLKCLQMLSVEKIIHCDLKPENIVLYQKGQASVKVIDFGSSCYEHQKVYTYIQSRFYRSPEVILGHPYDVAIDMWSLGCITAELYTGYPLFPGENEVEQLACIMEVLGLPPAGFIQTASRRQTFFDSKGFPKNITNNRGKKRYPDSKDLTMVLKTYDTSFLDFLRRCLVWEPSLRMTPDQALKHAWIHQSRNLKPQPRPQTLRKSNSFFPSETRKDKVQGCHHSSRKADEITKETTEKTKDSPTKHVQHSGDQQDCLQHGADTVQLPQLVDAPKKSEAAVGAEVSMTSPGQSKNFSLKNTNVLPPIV
# In short: as §1
# LOK/STK10 = target: T4, LOK/STK10 (Homo sapiens, UniProt O94804)
# T4 construct: purchased Reaction Biology Corp
# In short: as §1
# FER = target: T5, FER (Homo sapiens, UniProt P16591)
# T5 construct: purchased Reaction Biology Corp
# In short: as §1
# CAMK1g = target: T6, CAMK1g (Homo sapiens, UniProt Q96NX5)
# T6 construct: purchased Reaction Biology Corp
# In short: as §1
# CK1g3 = target: T7, CK1g3 (Homo sapiens, UniProt Q9Y6M4)
# T7 construct: purchased Reaction Biology Corp
# In short: as §1
# c-Kit = target: T8, c-Kit (Homo sapiens, UniProt P10721)
# T8 construct: purchased Reaction Biology Corp
# In short: as §1
# CAMK2d = target: T9, CAMK2d (Homo sapiens, UniProt Q13557)
# T9 construct: purchased Reaction Biology Corp
# In short: as §1
# RAF1 = details: 3 μM
# In short: as §1
# [1] = read-out: % Enzyme Activity (relative to DMSO controls) Run 1
# [2] = read-out: % Enzyme Activity (relative to DMSO controls) Run 2
# T7 sequence (Q9Y6M4 whole entry): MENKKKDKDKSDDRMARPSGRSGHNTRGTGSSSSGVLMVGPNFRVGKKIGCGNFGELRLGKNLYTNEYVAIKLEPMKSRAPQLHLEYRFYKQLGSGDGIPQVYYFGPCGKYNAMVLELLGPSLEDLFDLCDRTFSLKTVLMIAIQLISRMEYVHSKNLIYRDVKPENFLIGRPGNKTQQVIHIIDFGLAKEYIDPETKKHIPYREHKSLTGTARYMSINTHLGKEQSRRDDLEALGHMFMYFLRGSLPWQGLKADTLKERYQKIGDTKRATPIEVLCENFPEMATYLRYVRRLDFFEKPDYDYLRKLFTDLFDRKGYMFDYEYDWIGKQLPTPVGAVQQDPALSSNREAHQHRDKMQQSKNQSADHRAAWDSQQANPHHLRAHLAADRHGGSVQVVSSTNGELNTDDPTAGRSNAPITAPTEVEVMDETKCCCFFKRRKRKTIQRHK
# T9 sequence (Q13557 whole entry): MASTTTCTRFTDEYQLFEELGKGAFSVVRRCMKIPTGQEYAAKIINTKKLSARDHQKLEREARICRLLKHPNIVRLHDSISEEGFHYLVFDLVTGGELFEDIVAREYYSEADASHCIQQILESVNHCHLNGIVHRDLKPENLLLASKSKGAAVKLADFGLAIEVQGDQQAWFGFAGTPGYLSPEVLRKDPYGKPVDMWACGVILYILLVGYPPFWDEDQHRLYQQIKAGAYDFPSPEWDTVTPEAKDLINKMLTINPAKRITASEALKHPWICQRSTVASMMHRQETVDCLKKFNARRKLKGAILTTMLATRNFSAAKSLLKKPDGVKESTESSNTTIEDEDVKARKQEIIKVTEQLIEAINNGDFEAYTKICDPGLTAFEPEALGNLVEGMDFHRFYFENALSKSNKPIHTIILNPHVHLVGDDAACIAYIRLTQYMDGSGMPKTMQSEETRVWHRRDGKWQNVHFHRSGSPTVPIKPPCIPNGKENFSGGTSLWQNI
# T4 sequence (O94804 whole entry): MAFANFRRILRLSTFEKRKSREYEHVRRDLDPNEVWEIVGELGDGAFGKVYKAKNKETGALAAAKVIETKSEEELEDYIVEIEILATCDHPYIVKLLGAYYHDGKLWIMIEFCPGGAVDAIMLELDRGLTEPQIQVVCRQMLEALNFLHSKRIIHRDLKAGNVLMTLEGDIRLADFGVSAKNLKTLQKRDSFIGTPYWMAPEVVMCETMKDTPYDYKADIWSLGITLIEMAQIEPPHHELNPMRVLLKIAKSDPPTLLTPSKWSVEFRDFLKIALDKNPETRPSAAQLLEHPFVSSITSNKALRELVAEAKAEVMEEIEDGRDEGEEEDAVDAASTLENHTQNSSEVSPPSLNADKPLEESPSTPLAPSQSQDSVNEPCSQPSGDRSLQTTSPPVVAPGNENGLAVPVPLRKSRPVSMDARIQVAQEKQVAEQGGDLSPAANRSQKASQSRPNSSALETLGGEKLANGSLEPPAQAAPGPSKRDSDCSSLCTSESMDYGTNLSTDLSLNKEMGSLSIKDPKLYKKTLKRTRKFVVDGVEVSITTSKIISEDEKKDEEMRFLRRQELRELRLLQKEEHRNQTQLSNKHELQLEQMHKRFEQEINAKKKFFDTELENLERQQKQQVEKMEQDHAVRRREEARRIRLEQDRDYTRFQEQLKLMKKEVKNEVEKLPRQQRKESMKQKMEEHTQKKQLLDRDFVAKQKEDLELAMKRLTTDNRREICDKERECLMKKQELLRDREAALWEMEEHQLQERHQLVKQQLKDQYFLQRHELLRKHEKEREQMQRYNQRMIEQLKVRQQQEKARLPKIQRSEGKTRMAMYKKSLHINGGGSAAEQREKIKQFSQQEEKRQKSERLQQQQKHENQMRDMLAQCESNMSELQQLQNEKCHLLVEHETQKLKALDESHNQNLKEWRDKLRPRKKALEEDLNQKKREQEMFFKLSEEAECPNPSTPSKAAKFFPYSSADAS
# T5 sequence (P16591 whole entry): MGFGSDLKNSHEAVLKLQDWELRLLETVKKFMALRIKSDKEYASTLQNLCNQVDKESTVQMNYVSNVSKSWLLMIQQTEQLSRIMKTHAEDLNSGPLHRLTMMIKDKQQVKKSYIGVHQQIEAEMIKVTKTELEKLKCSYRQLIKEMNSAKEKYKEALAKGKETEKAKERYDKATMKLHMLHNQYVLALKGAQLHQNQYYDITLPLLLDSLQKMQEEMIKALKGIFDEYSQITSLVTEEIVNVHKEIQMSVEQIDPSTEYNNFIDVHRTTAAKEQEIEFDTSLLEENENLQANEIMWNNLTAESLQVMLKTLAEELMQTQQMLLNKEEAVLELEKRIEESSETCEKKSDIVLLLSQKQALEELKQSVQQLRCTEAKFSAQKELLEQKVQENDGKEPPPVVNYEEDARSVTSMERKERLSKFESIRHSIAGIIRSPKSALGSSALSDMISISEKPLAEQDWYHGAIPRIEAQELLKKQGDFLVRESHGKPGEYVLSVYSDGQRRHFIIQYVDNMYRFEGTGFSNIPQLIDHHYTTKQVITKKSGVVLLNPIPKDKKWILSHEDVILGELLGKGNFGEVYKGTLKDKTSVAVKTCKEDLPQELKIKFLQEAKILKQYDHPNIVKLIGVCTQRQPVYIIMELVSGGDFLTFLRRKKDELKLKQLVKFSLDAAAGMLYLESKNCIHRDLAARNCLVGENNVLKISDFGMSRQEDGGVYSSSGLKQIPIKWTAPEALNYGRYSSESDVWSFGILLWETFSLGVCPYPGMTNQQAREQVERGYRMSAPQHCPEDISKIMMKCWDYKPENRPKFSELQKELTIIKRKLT
# T8 sequence (P10721 26-976): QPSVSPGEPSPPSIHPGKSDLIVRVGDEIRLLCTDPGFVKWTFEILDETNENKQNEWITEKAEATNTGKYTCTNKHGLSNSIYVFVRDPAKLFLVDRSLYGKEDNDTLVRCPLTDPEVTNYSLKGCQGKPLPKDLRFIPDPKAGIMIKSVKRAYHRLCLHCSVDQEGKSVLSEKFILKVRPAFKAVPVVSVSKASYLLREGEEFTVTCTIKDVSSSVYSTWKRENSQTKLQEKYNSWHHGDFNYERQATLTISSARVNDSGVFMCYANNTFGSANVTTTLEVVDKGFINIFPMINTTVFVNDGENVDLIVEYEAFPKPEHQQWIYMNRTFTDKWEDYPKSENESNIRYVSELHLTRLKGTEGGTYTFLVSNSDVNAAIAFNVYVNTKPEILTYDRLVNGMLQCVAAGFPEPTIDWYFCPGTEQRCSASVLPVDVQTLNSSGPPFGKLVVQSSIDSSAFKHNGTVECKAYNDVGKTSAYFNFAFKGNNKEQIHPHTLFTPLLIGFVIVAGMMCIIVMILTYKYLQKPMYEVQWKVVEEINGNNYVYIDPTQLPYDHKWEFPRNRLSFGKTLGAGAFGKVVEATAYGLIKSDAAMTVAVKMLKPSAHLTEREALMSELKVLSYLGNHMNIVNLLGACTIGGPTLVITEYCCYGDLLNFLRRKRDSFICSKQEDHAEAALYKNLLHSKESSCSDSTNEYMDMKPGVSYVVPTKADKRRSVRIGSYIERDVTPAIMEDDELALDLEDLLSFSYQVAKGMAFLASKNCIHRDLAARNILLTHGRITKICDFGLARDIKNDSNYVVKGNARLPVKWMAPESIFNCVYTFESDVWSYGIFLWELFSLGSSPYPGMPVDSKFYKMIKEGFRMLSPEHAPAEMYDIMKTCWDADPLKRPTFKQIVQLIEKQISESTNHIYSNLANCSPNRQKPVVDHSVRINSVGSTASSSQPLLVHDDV
# T6 sequence (Q96NX5 whole entry): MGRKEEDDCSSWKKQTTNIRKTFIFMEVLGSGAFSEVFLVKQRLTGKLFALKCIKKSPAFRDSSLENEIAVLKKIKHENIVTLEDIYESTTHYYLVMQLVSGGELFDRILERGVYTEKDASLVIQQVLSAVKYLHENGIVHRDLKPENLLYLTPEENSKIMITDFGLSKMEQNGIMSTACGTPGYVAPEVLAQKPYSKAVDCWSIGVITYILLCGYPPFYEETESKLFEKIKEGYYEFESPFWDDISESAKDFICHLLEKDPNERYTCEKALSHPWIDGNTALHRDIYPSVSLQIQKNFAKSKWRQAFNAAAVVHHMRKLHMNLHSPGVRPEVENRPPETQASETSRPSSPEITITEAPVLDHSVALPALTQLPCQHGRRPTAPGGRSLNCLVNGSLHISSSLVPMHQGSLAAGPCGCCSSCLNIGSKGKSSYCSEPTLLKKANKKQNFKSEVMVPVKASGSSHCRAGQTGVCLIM
smiles,measurement,setting,value
C=CC(=O)Nc1cccc(Nc2nc(Nc3ccc(OCCOC)c(F)c3)ncc2F)c1 [Compound 2],inhibition at 3 µM,TYRO3/SKY,4.03%
same,remaining activity at 3 µM,TYRO3/SKY; [1],95.1%
same,remaining activity at 3 µM,TYRO3/SKY; [2],96.8%
same,inhibition at 3 µM,WNK2,6.19%
same,remaining activity at 3 µM,WNK2; [1],92.3%
same,remaining activity at 3 µM,WNK2; [2],95.3%
same,inhibition at 3 µM,DYRK4,-5.35%
same,remaining activity at 3 µM,DYRK4; [1],105%
same,remaining activity at 3 µM,DYRK4; [2],106%
same,inhibition at 3 µM,LOK/STK10,56.9%
same,remaining activity at 3 µM,LOK/STK10; [1],43.1%
same,remaining activity at 3 µM,LOK/STK10; [2],43%
same,inhibition at 3 µM,FER,11.8%
same,remaining activity at 3 µM,FER; [1],88.1%
same,remaining activity at 3 µM,FER; [2],88.3%
same,inhibition at 3 µM,CAMK1g,-0.72%
same,remaining activity at 3 µM,CAMK1g; [1],100%
same,remaining activity at 3 µM,CAMK1g; [2],101%
same,inhibition at 3 µM,CK1g3,15%
same,remaining activity at 3 µM,CK1g3; [1],84.2%
same,remaining activity at 3 µM,CK1g3; [2],85.8%
same,inhibition at 3 µM,c-Kit,21.5%
same,remaining activity at 3 µM,c-Kit; [1],77.5%
same,remaining activity at 3 µM,c-Kit; [2],79.5%
same,inhibition at 3 µM,CAMK2d,-23.3%
same,remaining activity at 3 µM,CAMK2d; [1],124%
same,remaining activity at 3 µM,CAMK2d; [2],123%
same,% Enzyme Activity (relative to DMSO controls) Run 1,RAF1,83.34%
same,% Enzyme Activity (relative to DMSO controls) Run 2,RAF1,83.62%
same,Average % Inhibition,RAF1,16.52%
